The assay addresses T1, particulate guanylyl cyclase receptor A (pGC-A) (Homo sapiens, UniProt P16066).
T1 construct: expressed in transfected cells; host or cells: HEK293
T1 sequence (P16066 33-1061): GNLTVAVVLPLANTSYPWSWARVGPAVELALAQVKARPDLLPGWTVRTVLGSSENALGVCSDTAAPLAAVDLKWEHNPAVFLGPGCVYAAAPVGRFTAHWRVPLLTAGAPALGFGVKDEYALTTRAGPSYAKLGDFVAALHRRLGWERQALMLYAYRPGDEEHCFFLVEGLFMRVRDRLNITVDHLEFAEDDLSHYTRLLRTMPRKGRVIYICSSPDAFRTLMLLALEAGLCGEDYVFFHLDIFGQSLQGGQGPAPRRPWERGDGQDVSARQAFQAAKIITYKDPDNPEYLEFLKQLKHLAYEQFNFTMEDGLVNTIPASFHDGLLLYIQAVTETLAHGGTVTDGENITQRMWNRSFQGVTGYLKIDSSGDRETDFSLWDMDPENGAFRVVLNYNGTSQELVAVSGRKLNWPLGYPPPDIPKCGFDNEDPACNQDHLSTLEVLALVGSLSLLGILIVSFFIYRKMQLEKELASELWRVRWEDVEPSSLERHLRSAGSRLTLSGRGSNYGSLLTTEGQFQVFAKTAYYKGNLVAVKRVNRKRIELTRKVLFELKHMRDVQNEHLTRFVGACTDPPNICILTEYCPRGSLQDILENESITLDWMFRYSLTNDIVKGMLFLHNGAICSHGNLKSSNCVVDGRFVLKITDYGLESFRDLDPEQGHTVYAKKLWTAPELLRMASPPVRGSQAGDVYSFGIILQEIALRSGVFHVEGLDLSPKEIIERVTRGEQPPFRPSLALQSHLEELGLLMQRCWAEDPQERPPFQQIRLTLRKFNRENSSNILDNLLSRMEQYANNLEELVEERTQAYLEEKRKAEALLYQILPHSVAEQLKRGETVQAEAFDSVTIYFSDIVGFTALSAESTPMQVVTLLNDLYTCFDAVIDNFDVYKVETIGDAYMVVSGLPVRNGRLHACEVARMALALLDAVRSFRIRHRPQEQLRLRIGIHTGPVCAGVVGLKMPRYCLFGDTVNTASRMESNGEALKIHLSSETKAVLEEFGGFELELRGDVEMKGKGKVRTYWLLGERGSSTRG
T1 sequence (P01160 124-151 partner limits assumed): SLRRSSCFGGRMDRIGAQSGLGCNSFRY
Nature of the assay: cGMP production by HTRF in HEK293 cells overexpressing pGC-A, with ANP. In kind it is cell-based. The conditions noted are these: for Emax: HEK293, HEK293 cells overexpressing pGC-A, read-out: Max efficacy; for Emax / Max efficacy: cGMP normalized to maximal amount produced by an EC80 concentration of ANP; for EC50 / Max efficacy: HEK293 cells overexpressing pGC-A; for EC50: test compound plus EC20 concentration of ANP, cGMP by HTRF. The gist of the method:
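Suspension cells stimulated 30 min at room temperature with test compound (10 μM stock in DMSO) plus ANP near EC20 in HBSS/5 mM HEPES/0.05% BSA. cGMP quantified by competitive HTRF immunoassay (Eu3+ cryptate anti-cGMP, d2-cGMP), normalized to cGMP from EC80 ANP; EC50 derived with or without ANP.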
In general terms: TR-FRET usually uses a lanthanide donor and a delayed reading to cut background.

Values joined by “and” are separate entries in the source; they are usually repeats but may differ in a detail not shown here. Identical values can stand only once.

A word on the EC50: it is the midpoint of the concentration-response curve. As for `CN(CCO)CCN1CCCC(C(=O)Nc2nc3c(F)cc(F)cc3s2)C1` (stereo not shown) [compound 242], the Emax amounted to 105% and the EC50 came out at 700 nM. With `O=C(Nc1nc2c(F)cc(F)cc2s1)C1CCCN(CCN2CCCCC2)C1` (stereo not shown) [compound 243], the Emax was 91%; the Max efficacy worked out at 77%; the EC50 was 470 nM and 200 nM. On to `O=C(Nc1nc2c(F)cc(F)cc2s1)C1CCCN(CCN2CCOCC2)C1` (stereo not shown) [compound 244], for which the Emax amounted to 94% and the EC50 is 280 nM. Turning to `O=C(Nc1nc2c(F)cc(F)cc2s1)C1CCCN(CCN2CCCC2=O)C1` (stereo not shown) [compound 245], the Emax was 102%; the EC50 is 4500 nM and 1800 nM. Turning to `O=C(Nc1nc2c(F)cc(F)cc2o1)C1CCCNC1` (stereo not shown) [compound 248], the EC50 was > 5000 nM. With `CN(C)CCN1CCCC(C(=O)Nc2nc3c(Cl)c(Cl)ccc3s2)C1` (stereo not shown) [compound 250], the Emax was determined as 60% and the EC50 stood at 1400 nM. As for `CN(C)CCN1CCCC(C(=O)Nc2nc3c(Cl)cc(Cl)cc3s2)C1` (stereo not shown) [compound 251], the EC50 was > 5000 nM.

`CN(C)CCN1CCCC(C(=O)Nc2nc3c(Cl)ccc(Cl)c3s2)C1` (stereo not shown) [compound 252]: the EC50 was > 5000 nM.

In the case of `CN(C)CCN1CCCC(C(=O)Nc2nc3c(Cl)cc(F)cc3s2)C1` (stereo not shown) [compound 253], the Emax is 72% and the EC50 was 50 nM. Regarding `CN(C)C(=O)N1CCCC(C(=O)Nc2nc3c(F)cc(F)cc3s2)C1` (stereo not shown) [compound 255], the Emax came out at 86% and the EC50 was determined as 600 nM. On to `O=C(Nc1nc2c(F)cc(F)cc2s1)C1CCCN(CCN2CCCC2C(=O)O)C1` (stereo not shown) [compound 259], for which the Emax turned out to be 74% and the EC50 was determined as 1300 nM. Regarding `O=C(O)CNCCN1CCCC(C(=O)Nc2nc3c(F)cc(F)cc3s2)C1` (stereo not shown) [compound 260], the EC50 was > 5000 nM. As for `CN(C)CCN1CC(O)CC(C(=O)Nc2nc3c(F)cc(F)cc3s2)C1` (stereo not shown) [compound 262], the Emax was determined as 86% and the EC50 worked out at 400 nM. The matching figures for `O=C(Nc1nc2c(F)cc(F)cc2s1)C1CNCC(O)C1` (stereo not shown) [compound 263]: 45% and 1300 nM. As to `COC1CNCC(C(=O)Nc2nc3c(F)cc(F)cc3s2)C1` (stereo not shown) [compound 265], the Emax was determined as 75% and the EC50 was 1700 nM.

Regarding `O=C(O)C1CNCC(C(=O)Nc2nc3c(F)cc(F)cc3s2)C1` (stereo not shown) [compound 271], the EC50 is > 5000 nM. Regarding `CCN(C)C(=O)N1CCCC(C(=O)Nc2nc3c(F)cc(F)cc3s2)C1` (stereo not shown) [compound 274], the Emax is 62%; the Max efficacy is listed as 72%; the EC50 was 3600 nM and 1200 nM.

Turning to `O=C(Nc1nc2c(F)cc(F)cc2s1)C1CCCN(C(=O)N2CCCC2)C1` (stereo not shown) [compound 275], the EC50 is > 5000 nM. For the molecule `CCN(CC)C(=O)N1CCCC(C(=O)Nc2nc3c(F)cc(F)cc3s2)C1` (stereo not shown) [compound 276], the Emax was 49%; the EC50 is 1600 nM and > 5000 nM. Turning to `CCNC(=O)N1CCCC(C(=O)Nc2nc3c(F)cc(F)cc3s2)C1` (stereo not shown) [compound 277], the EC50 is > 5000 nM. `CC(C)NC(=O)N1CCCC(C(=O)Nc2nc3c(F)cc(F)cc3s2)C1` (stereo not shown) [compound 278]: the Emax came to 70% and the EC50 came to 2600 nM. In the case of `O=C(Nc1nc2c(F)cc(F)cc2s1)C1CCCN(C(=O)NCc2ccccc2)C1` (stereo not shown) [compound 279], the EC50 was > 5000 nM. With `O=C(Nc1nc2c(F)cc(F)cc2s1)C1CCCN(C(=O)Nc2ccccc2)C1` (stereo not shown) [compound 280], the EC50 is > 5000 nM.

Consider `CNC(=O)N1CCCC(C(=O)Nc2nc3c(F)cc(F)cc3s2)C1` (stereo not shown) [compound 281], for which the Emax came to 53% and the EC50 was 1300 nM.

`CN(C)C(=O)N1CCCC(C(=O)Nc2nc3c(Cl)cc(F)cc3s2)C1` (stereo not shown) [compound 282]: the Emax came out at 61% and the EC50 worked out at 180 nM.

Values taken from patent US20250092030A1, “ENHANCERS OF PARTICULATE GUANYLYL CYCLASE RECEPTOR A” (Mayo Foundation for Medical Education and Research, priority 2023, published 2025).
